According to ChEMBL document CHEMBL1130454, “Synthesis and antirheumatic activity of novel tetrahydroquinoline-8-carboxylic acid derivatives” (1997):

Legend:
Format in all cases: functional
Rattus norvegicus [1] = test: Tested for edema suppression rate with respect to control value in adjuvant arthritis rat; Range = 0-20%
Rattus norvegicus [2] = test: Tested for edema suppression rate with respect to control value in adjuvant arthritis rat at a dose of 10 mg/Kg; Range = 21-30%
Rattus norvegicus [3] = test: Tested for edema suppression rate with respect to control value in adjuvant arthritis rat at a dose of 10 mg/Kg; Range = 31-40%
Rattus norvegicus [4] = test: Tested for edema suppression rate with respect to control value in adjuvant arthritis rat at a dose of 10 mg/Kg; Range = 41-50%
Rattus norvegicus [5] = test: Tested for edema suppression rate with respect to control value in adjuvant arthritis rat at a dose of 50 mg/Kg; Range = 31-40%
Rattus norvegicus [6] = test: Tested for edema suppression rate with respect to control value in adjuvant arthritis rat at a dose of 50 mg/Kg; Range = >50%
Rattus norvegicus [7] = test: Tested for edema suppression rate with respect to control value in adjuvant arthritis rat at a dose of 50 mg/Kg; Range = 21-30%

`O=C(O)c1cc([N+](=O)[O-])ccc1NCc1ccccc1` gave an Inhibition (Rattus norvegicus [1]) of 20%.
`Nc1ccc([N+](=O)[O-])cc1C(=O)O` was tested, and the inhibition in vivo at 10 mg/kg (Rattus norvegicus [2]) was 30%.
`O=C(O)c1cc([N+](=O)[O-])cc2c1NCC2` was tested, and the Inhibition (Rattus norvegicus [1]) was 20%.
`O=C(O)c1cc(Cl)cc2c1NCCS2` gave an Inhibition (Rattus norvegicus [1]) of 20%.
Work on `O=C(O)c1cccc2c1NC(c1ccccc1)CO2` (stereo unspecified) yielded an inhibition in vivo at 10 mg/kg (Rattus norvegicus [3]) of 40%.
`O=C(O)Cc1cc2c(c(C(=O)O)c1)NCCC2` was tested, and the inhibition in vivo at 10 mg/kg (Rattus norvegicus [4]) was 50%.
`CNc1ccc([N+](=O)[O-])cc1C(=O)O` showed an inhibition in vivo at 50 mg/kg (Rattus norvegicus [5]) of 40%.
In the case of `O=C(O)c1cc([N+](=O)[O-])cc2c1NC(c1ccccc1)CC2` (stereo unspecified), the Inhibition (Rattus norvegicus [1]) is reported as 20%.
Work on `O=C(O)c1cc2c(c(C(=O)O)c1)NCCS2` yielded an Inhibition (Rattus norvegicus [1]) of 20%.
In the case of `CS(=O)(=O)Nc1cc2c(c(C(=O)O)c1)NCCCC2`, the inhibition in vivo at 50 mg/kg (Rattus norvegicus [5]) is reported as 40%.
Work on `O=C(O)c1cc([N+](=O)[O-])cc2c1NCCCC2` yielded an inhibition in vivo at 10 mg/kg (Rattus norvegicus [2]) of 30%.
In the case of `O=C(O)c1cc2c(c(C(=O)O)c1)NCCC2`, the inhibition in vivo at 10 mg/kg (Rattus norvegicus [3]) is reported as 40%.
In the case of `O=C(O)c1cc([N+](=O)[O-])cc2c1NCCC2`, the inhibition in vivo at 50 mg/kg (Rattus norvegicus [6]) is reported as > 50%.
Compound `O=C(O)c1cc(Br)c(Cl)c2c1NCCO2` has an inhibition in vivo at 50 mg/kg (Rattus norvegicus [7]) of 30%.
Compound `O=C(O)c1cc([N+](=O)[O-])cc2c1NCCO2` has an Inhibition (Rattus norvegicus [1]) of 20%.
`Nc1ccc(Cl)cc1C(=O)O` was tested, and the Inhibition (Rattus norvegicus [1]) was 20%.
